Bridge positions count the residues as written; N and C are the ends. Square brackets hold non-standard residues; d marks the D form. Peptide text beside a SMILES is read from it. Phe(4-CF3) = N[C@@H](Cc1ccc(C(F)(F)F)cc1)C(=O)O; Bip = N[C@@H](Cc1ccc(-c2ccccc2)cc1)C(=O)O; NMeF = CN[C@@H](Cc1ccccc1)C(=O)O; NMeE = CN[C@@H](CCC(=O)O)C(=O)O; NMeA = CN[C@@H](C)C(=O)O
Molecular target: human PCSK9 (Homo sapiens, UniProt Q8NBP7)
Assay: PCSK9 ligand binding assay (TR-FRET): interference with binding of human PCSK9 to human LDLR
Details: PCSK9 FRET assay, efficacy (Amax); 0% = DMSO, 100% = 1 uM unlabeled human PCSK9
Experimental: The activity of cyclic polypeptides according to the disclosure as PCSK9 can be assessed using a time resolved fluorescence resonance energy transfer (TR-FRET) assay. This time resolved fluorescence resonance energy transfer (TR-FRET) assay measures the ability of a cyclic polypeptides of the disclosure to interfere with the binding of human PCSK9 to human LDLR, providing measures of both potency (IC50) and efficacy (Amax).
Solutions of varying concentrations are prepared by diluting a cyclic polypeptide of the disclosure in dimethylsulfoxide (DMSO) and the resulting solutions are pipetted into a plate. DMSO is used as a negative control. An intermediate plate is prepared in by transferring a known amount of each polypeptide solution and of the control from the compound plate into a corresponding well containing assay buffer and mixing thoroughly. A third plate is then prepared to be used for the assay by adding Human PCSK9 Alexa Fluor 647, followed by a known amount of each solution from the intermediate plate. Unlabeled human PCSK9 in assay buffer containing DMSO is used as a positive control for the assay. Following incubation, Human LDLR extracellular domain-Europium Kryptate is added to each well of the assay plate and the resulting mixture is incubated for an additional period of time. The TR-FRET signal is measured and the FRET ratio (FRET/Europium) is used to calculate the IC50 and Amax of the cyclic polypeptides.
The PCSK9 binding of the cyclic polypeptides of the disclosure were measured using a time resolved fluorescence resonance energy transfer (TR-FRET) assay. This time resolved fluorescence resonance energy transfer (TR-FRET) assay measures the ability of a cyclic polypeptide of the disclosure to interfere with the binding of human PCSK9 to human LDLR, providing measures of both potency (IC50) and efficacy (Amax).
• Human PCSK9 • Human PCSK9 Alexa Fluor 647 • Human LDLR extracellular domain-Europium Kryptate • Proxi plate-low volume assay plate (PerkinElmer #6008280) • Greiner V-bottom (Greiner BioOne #781280) • Assay Buffer • 20 mM HEPES, pH 7.5 • 150 mM NaCl • 1 mM CaCl2 • 0.01% v/v Tween20 • 0.01% w/v BSA
A master compound plate was prepared in a Greiner V bottom plate by diluting cyclic polypeptides of the disclosure in dimethylsulfoxide to the correct concentration for the desired top concentration based on the desired final concentration: for a 30 uM final concentration the master plate concentration is 1.5 mM (68 uL DMSO+12 uL 10 mM of a cyclic polypeptide of the disclosure), for a 10 uM final concentration the master plate concentration is 0.5 mM (76 uL DMSO+4 uL 10 mM of a cyclic polypeptide of the disclosure), for a 3 uM final concentration the master plate concentration is 150 uM (69 uL DMSO+1 uL 10 mM a cyclic peptide of the disclosure). These solutions were pipetted into columns 1 and 11 of the compound plate. Threefold serial dilutions were generated in columns 2-10 and 12-20 of the compound plate by transferring 10 uL into 20 μL of DMSO. Columns 21 and 22 of the compound plate were negative controls containing DMSO alone.
An intermediate plate was generated in a Greiner V bottom plate by transferring 8 uL from each well of the master plate into a corresponding well containing 92 μL of assay buffer and mixing thoroughly.
A Proxi plate-low volume assay plate was used for the assay. To all wells of the plate was added 10 μL of 16 nM Human PCSK9 Alexa Fluor 647, followed by 5 uL from the intermediate plate. […] Following a 30 minute incubation, 5 μL of 4 nM Human LDLR extracellular domain-Europium Kryptate was added and the mixture was incubated for an additional 2 hours.
The TR-FRET signal was measured on an EnVision or PheraStar instrument with a […] delay, 330 nm excitation and 665 nm emission (FRET), and 330 nm excitation and 615 nm (Europium). The FRET ratio (FRET/Europium) was used for calculations. […]

Chain of human PCSK9 (Q8NBP7 153-692): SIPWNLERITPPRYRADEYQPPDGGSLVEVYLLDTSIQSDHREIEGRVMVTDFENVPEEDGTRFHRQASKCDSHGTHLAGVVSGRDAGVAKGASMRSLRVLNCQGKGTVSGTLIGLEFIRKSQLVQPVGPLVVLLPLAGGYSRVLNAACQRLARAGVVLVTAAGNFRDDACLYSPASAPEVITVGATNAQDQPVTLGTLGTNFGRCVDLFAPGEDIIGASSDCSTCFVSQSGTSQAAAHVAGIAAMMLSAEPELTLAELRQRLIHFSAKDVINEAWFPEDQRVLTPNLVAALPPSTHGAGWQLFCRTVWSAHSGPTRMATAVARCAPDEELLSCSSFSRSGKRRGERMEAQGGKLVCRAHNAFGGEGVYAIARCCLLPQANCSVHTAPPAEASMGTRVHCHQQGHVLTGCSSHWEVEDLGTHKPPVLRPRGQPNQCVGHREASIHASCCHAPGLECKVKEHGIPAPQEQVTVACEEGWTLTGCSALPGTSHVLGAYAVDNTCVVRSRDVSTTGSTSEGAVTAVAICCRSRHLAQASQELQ
Chain of human PCSK9 (Q8NBP7 31-152 partner limits assumed): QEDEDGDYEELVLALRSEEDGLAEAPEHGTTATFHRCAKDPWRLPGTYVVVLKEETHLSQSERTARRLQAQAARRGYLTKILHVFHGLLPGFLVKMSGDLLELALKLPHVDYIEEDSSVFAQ

| SMILES | Maximum % inhibition [%] |
| --- | --- |
| CC(C)[C@@H]1NC(=O)[C@H](Cc2ccccc2)NC(=O)CSC[C@@H](C(=O)NCC(N)=O)NC(=O)[C@@H]2CCCN2C(=O)[C@H](CO)NC(=O)[C@H](CC(N)=O)NC(=O)[C@H](CCC(=O)O)N(C)C(=O)[C@H](Cc2ccc(-c3ccccc3)cc2)NC(=O)[C@H](Cc2ccccc2)N(C)C(=O)[C@H](CO)NC(=O)[C@H]([C@@H](C)O)NC(=O)[C@H]([C@@H](C)O)NC(=O)[C@H](CC(=O)O)NC1=O [Example 1-1] ({CH2CO}-FVDTTS[NMeF][Bip][NMeE]NSPCG-NH2; thioether N-13) | 65 |
| CC(C)[C@@H]1NC(=O)[C@H](Cc2ccccc2)NC(=O)CSC[C@@H](C(=O)NCC(N)=O)NC(=O)[C@@H]2CCCN2C(=O)[C@H](CCCNC(=N)N)NC(=O)[C@H](CC(=O)O)NC(=O)[C@H](C)N(C)C(=O)[C@H](Cc2ccc(-c3ccccc3)cc2)NC(=O)[C@H](C)N(C)C(=O)[C@H](Cc2ccc(-c3ccccc3)cc2)NC(=O)[C@H]([C@@H](C)O)NC(=O)[C@H]([C@@H](C)O)NC(=O)[C@H](CO)NC1=O [Example 1-2, Ac*-F-V-S-T-T-B-(N-Me)A-B-(N-Me)A-D-R-P-C*-G-NH2] | 41 |
| CC(C)[C@@H]1NC(=O)[C@H](Cc2ccccc2)NC(=O)CSC[C@@H](C(=O)NCC(N)=O)NC(=O)[C@@H]2CCCN2C(=O)[C@H](CO)NC(=O)[C@H](CC(N)=O)NC(=O)[C@H](C)N(C)C(=O)[C@H](Cc2ccc(-c3ccccc3)cc2)NC(=O)[C@H](Cc2ccccc2)N(C)C(=O)[C@H](CO)NC(=O)[C@H]([C@@H](C)O)NC(=O)[C@H]([C@@H](C)O)NC(=O)[C@H](CC(=O)O)NC1=O [Example 1-3, Ac*-F-V-D-T-T-S-(N-Me)F-B-(N-Me)A-N-S-P-C*-G-NH2] ({CH2CO}-FVDTTS[NMeF][Bip][NMeA]NSPCG-NH2; thioether N-13) | 55 |
| CC(C)[C@@H]1NC(=O)[C@H](Cc2ccccc2)NC(=O)CSC[C@@H](C(=O)NCC(N)=O)NC(=O)[C@@H]2CCCN2C(=O)[C@H](Cc2cnc[nH]2)NC(=O)[C@H](CC(N)=O)NC(=O)[C@H](C)N(C)C(=O)[C@H](Cc2ccc(-c3ccccc3)cc2)NC(=O)[C@H](C)N(C)C(=O)[C@H](Cc2ccc(O)cc2)NC(=O)[C@H]([C@@H](C)O)NC(=O)[C@H](CO)NC(=O)[C@H](CC(=O)O)NC1=O [Example 1-4, Ac*-F-V-D-S-T-Y-(N-Me)A-B-(N-Me)A-N-H-P-C*-G-NH2] ({CH2CO}-FVDSTY[NMeA][Bip][NMeA]NHPCG-NH2; thioether N-13) | 60 |
| CC(C)[C@@H]1NC(=O)[C@H](Cc2ccccc2)NC(=O)CSC[C@@H](C(=O)NCC(N)=O)NC(=O)[C@@H]2CCCN2C(=O)[C@H](CO)NC(=O)[C@H](CCC(=O)O)NC(=O)[C@H](C)N(C)C(=O)[C@H](Cc2ccc(-c3ccccc3)cc2)NC(=O)[C@H](Cc2ccccc2)N(C)C(=O)[C@H](CO)NC(=O)[C@H]([C@@H](C)O)NC(=O)[C@H]([C@@H](C)O)NC(=O)[C@H](CC(=O)O)NC1=O [Example 1-5, Ac*-F-V-D-T-T-S-(N-Me)F-B-(N-Me)A-E-S-P-C*-G-NH2] ({CH2CO}-FVDTTS[NMeF][Bip][NMeA]ESPCG-NH2; thioether N-13) | 95 |

The next lines start with the values.

| Maximum % inhibition [%] | SMILES |
| --- | --- |
| 97 | CC(C)[C@@H]1NC(=O)[C@H](Cc2ccccc2)NC(=O)CSC[C@@H](C(=O)NCC(N)=O)NC(=O)[C@@H]2CCCN2C(=O)[C@H](CO)NC(=O)[C@H](CCC(=O)O)NC(=O)[C@H](C)N(C)C(=O)[C@H](Cc2ccc(C(F)(F)F)cc2)NC(=O)[C@H](Cc2ccccc2)N(C)C(=O)[C@H](CO)NC(=O)[C@H]([C@@H](C)O)NC(=O)[C@H]([C@@H](C)O)NC(=O)[C@H](CC(=O)O)NC1=O [Example 1-6, Ac*-F-V-D-T-T-S-(N-Me)F-(p-CF3)F-(N-Me)A-E-S-P-C*-G-NH2] ({CH2CO}-FVDTTS[NMeF][Phe(4-CF3)][NMeA]ESPCG-NH2; thioether N-13) |
| 60 | CC(C)[C@@H]1NC(=O)[C@H](Cc2ccccc2)NC(=O)CSC[C@@H](C(=O)NCC(N)=O)NC(=O)[C@@H]2CCCN2C(=O)[C@H](CO)NC(=O)[C@H](CCCCN)NC(=O)[C@H](C)N(C)C(=O)[C@H](Cc2ccc(-c3ccccc3)cc2)NC(=O)[C@H](C)N(C)C(=O)[C@H](CO)NC(=O)[C@H]([C@@H](C)O)NC(=O)[C@H]([C@@H](C)O)NC(=O)[C@H](CC(=O)O)NC1=O [Example 1-7, Ac*-F-V-D-T-T-S-(N-Me)A-B-(N-Me)A-K-S-P-C*-G-NH2] ({CH2CO}-FVDTTS[NMeA][Bip][NMeA]KSPCG-NH2; thioether N-13) |
| 58 | CC(C)[C@@H]1NC(=O)[C@H](Cc2ccccc2)NC(=O)CSC[C@@H](C(=O)NCC(N)=O)NC(=O)[C@@H]2CCCN2C(=O)[C@H](CO)NC(=O)[C@H](CC(=O)O)NC(=O)[C@H](C)N(C)C(=O)[C@H](Cc2ccc(-c3ccccc3)cc2)NC(=O)[C@H](C)N(C)C(=O)[C@H](Cc2ccc(-c3ccccc3)cc2)NC(=O)[C@H]([C@@H](C)O)NC(=O)[C@H]([C@@H](C)O)NC(=O)[C@H](CO)NC1=O [Example 1-8, Ac*-F-V-S-T-T-B-(N-Me)A-B-(N-Me)A-D-S-P-C*-G-NH2] ({CH2CO}-FVSTT[Bip][NMeA][Bip][NMeA]DSPCG-NH2; thioether N-13) |
| 35 | CC(C)[C@@H]1NC(=O)[C@H](Cc2ccccc2)NC(=O)CSC[C@@H](C(=O)NCC(N)=O)NC(=O)[C@@H]2CCCN2C(=O)[C@H](CCCNC(=N)N)NC(=O)[C@H](CC(=O)O)NC(=O)[C@H](C)N(C)C(=O)[C@H](Cc2ccc(-c3ccccc3)cc2)NC(=O)[C@H](Cc2ccccc2)N(C)C(=O)[C@H](CO)NC(=O)[C@H]([C@@H](C)O)NC(=O)[C@H]([C@@H](C)O)NC(=O)[C@H](CO)NC1=O [Example 1-9, Ac*-F-V-S-T-T-S-(N-Me)F-B-(N-Me)A-D-R-P-C*-G-NH2] ({CH2CO}-FVSTTS[NMeF][Bip][NMeA]DRPCG-NH2; thioether N-13) |
| 90 | CC(C)[C@@H]1NC(=O)[C@H](Cc2ccccc2)NC(=O)CSC[C@@H](C(=O)NCC(N)=O)NC(=O)[C@@H]2CCCN2C(=O)[C@H](CO)NC(=O)[C@H](CCC(=O)O)NC(=O)[C@H](C)N(C)C(=O)[C@H](Cc2ccc(-c3ccccc3)cc2)NC(=O)[C@H](C)N(C)C(=O)[C@H](Cc2ccc(-c3ccccc3)cc2)NC(=O)[C@H]([C@@H](C)O)NC(=O)[C@H]([C@@H](C)O)NC(=O)[C@H](CC(=O)O)NC1=O [Example 1-10, Ac*-F-V-D-T-T-B-(N-Me)A-B-(N-Me)A-E-S-P-C*-G-NH2] ({CH2CO}-FVDTT[Bip][NMeA][Bip][NMeA]ESPCG-NH2; thioether N-13) |
| 55 | CC(C)[C@@H]1NC(=O)[C@H](Cc2ccccc2)NC(=O)CSC[C@@H](C(=O)NCC(N)=O)NC(=O)[C@@H]2CCCN2C(=O)[C@H](CCCNC(=N)N)NC(=O)[C@H](CCC(=O)O)NC(=O)[C@H](C)N(C)C(=O)[C@H](Cc2ccc(C(F)(F)F)cc2)NC(=O)[C@H](C)N(C)C(=O)[C@H](Cc2ccc(C(F)(F)F)cc2)NC(=O)[C@H]([C@@H](C)O)NC(=O)[C@H]([C@@H](C)O)NC(=O)[C@H](CO)NC1=O [Example 1-11, Ac*-F-V-S-T-T-(p-CF3)F-(N-Me)A-(p-CF3)F-(N-Me)A-E-R-P-C*-G-NH2] ({CH2CO}-FVSTT[Phe(4-CF3)][NMeA][Phe(4-CF3)][NMeA]ERPCG-NH2; thioether N-13) |

Same assay, conditions: TR-FRET; Human PCSK9 Alexa Fluor 647 and Human LDLR extracellular domain-Europium Kryptate

| IC50 [nM] | SMILES |
| --- | --- |
| 12 | CC(C)[C@@H]1NC(=O)[C@H](Cc2ccccc2)NC(=O)CSC[C@@H](C(=O)NCC(N)=O)NC(=O)[C@@H]2CCCN2C(=O)[C@H](CO)NC(=O)[C@H](CCC(=O)O)NC(=O)[C@H](C)N(C)C(=O)[C@H](Cc2ccc(C(F)(F)F)cc2)NC(=O)[C@H](Cc2ccccc2)N(C)C(=O)[C@H](CO)NC(=O)[C@H]([C@@H](C)O)NC(=O)[C@H]([C@@H](C)O)NC(=O)[C@H](CC(=O)O)NC1=O [Example 1-6, Ac*-F-V-D-T-T-S-(N-Me)F-(p-CF3)F-(N-Me)A-E-S-P-C*-G-NH2] ({CH2CO}-FVDTTS[NMeF][Phe(4-CF3)][NMeA]ESPCG-NH2; thioether N-13) |
| 410 | CC(C)[C@@H]1NC(=O)[C@H](Cc2ccccc2)NC(=O)CSC[C@@H](C(=O)NCC(N)=O)NC(=O)[C@@H]2CCCN2C(=O)[C@H](CO)NC(=O)[C@H](CCCCN)NC(=O)[C@H](C)N(C)C(=O)[C@H](Cc2ccc(-c3ccccc3)cc2)NC(=O)[C@H](C)N(C)C(=O)[C@H](CO)NC(=O)[C@H]([C@@H](C)O)NC(=O)[C@H]([C@@H](C)O)NC(=O)[C@H](CC(=O)O)NC1=O [Example 1-7, Ac*-F-V-D-T-T-S-(N-Me)A-B-(N-Me)A-K-S-P-C*-G-NH2] ({CH2CO}-FVDTTS[NMeA][Bip][NMeA]KSPCG-NH2; thioether N-13) |
